{"source": "patent US20170112857A1", "about": "“Extended Release Aspirin” (New Haven Pharmaceuticals, Inc., priority 2015, published 2017)", "key": {"endothelial function": {"tested_on": "endothelial function", "experiment": "Reactive hyperemia index (ENDOPAT pulsatile arterial tonometry)", "type": "in vivo, human", "details": "for RHI < 1.67 (%): share of subjects", "experimental": "Endothelial function was assessed using the ENDOPAT system ([…] Medical, Israel), a pulsatile arterial tonometry-based diagnostic device, at Visit 2, Visit 3, Visit 5, and Visit 6 predose. The reactive hyperemia index (“RHI”), a measure of endothelial function, and the augmentation index (“AI”), a measure of arterial stiffness, were determined. Endothelial dysfunction is defined as RHI<1.67. Normal arterial stiffness is defined as an AI -30% to -10%, increased arterial stiffness as an AI>-10% to 10%, and abnormal arterial stiffness as an AI>10%. The RHI measures vessel pliability which is a surrogate for nitric oxide production. The production of nitric oxide inhibits platelet aggregation. Thus, determining nitric oxide production following Durlaza® dosing is important to understanding its affect on platelet inhibition."}, "platelet aggregation [1]": {"tested_on": "platelet aggregation", "experiment": "VerifyNow Aspirin Assay (ARU), turbidimetric optical detection in whole blood", "type": "in vivo, human", "details": "Visit 2 trough", "experimental": "The VerifyNow® is a turbidimetric based optical detection system that measures platelet aggregation in the whole blood and reports the optical signals as aspirin reaction units (“ARU”). The percent change in ARU over 24 hours (“ARU24”) is calculated from 1 hour post dose using the following formulas: ARU12(%)=(([…]16(%)=(([…]1)*100 and ARU24(%)=(([…]1)*100. […] For this study the trough level data are from the following timepoints: (1) for 81 mg-the data at Visit 2; […]"}, "platelet aggregation [2]": {"tested_on": "platelet aggregation", "experiment": "AA-, collagen- and ADP-induced light transmittance aggregometry (LTA)", "type": "in vivo, human", "details": "Visit 2 trough", "experimental": "High platelet reactivity has previously been implicated in incomplete inhibition during therapy with immediate release low-dose aspirin in patients with type II diabetes. The main study consisted of a run-in phase where subjects were administered 81 mg, everyday (“QD”), of immediate release acetylsalicylic acid (“IR ASA”) for 7-28 days. […] During Visits 2 and 5 subjects were subjected to the following tests: (1) platelet aggregation measurements (a) AA induced, (b) collagen induced, and (c) Multiplate®; […] During Visits 3 and 6 subjects were subjected to the following tests: (1) platelet aggregation measurements (a) AA induced, (b) collagen induced, and (c) Multiplate®; […] An increase in platelet aggregation ([…], or […] or […]) by more than 15% with either agonists (i.e., arachidonic acid or collagen) is considered a significant loss of aspirin effect over 24 hours. […] For this study the trough level data are from the following timepoints: (1) for 81 mg-the data at Visit 2; […]"}, "platelet aggregation [3]": {"tested_on": "platelet aggregation", "details": "75 mg IR ASA; Würtz et al.; cited from earlier work"}, "platelet aggregation [4]": {"tested_on": "platelet aggregation", "experiment": "Multiplate platelet aggregation", "type": "in vivo, human", "details": "Visit 2 trough", "experimental": "The main study consisted of a run-in phase where subjects were administered 81 mg, everyday (“QD”), of immediate release acetylsalicylic acid (“IR ASA”) for 7-28 days. […] During Visits 2 and 5 subjects were subjected to the following tests: (1) platelet aggregation measurements (a) AA induced, (b) collagen induced, and (c) Multiplate®; […] During Visits 3 and 6 subjects were subjected to the following tests: (1) platelet aggregation measurements (a) AA induced, (b) collagen induced, and (c) Multiplate®; […] For this study the trough level data are from the following timepoints: (1) for 81 mg—the data at Visit 2; […]"}, "[5]": {"details": "HPT Group, Visit 5, 81 mg IR ASA"}, "[6]": {"details": "81 mg IR, subjects compared with Visit 6 (sub-study)"}}, "data": [{"smiles": "CC(=O)Oc1ccccc1C(=O)O", "note": "[IR ASA, acetylsalicylic acid]", "values": [{"measurement": "Reactive Hyperemia Index, Maximum", "setting": "endothelial function; [5]", "result": 2.27}, {"measurement": "Reactive Hyperemia Index, Mean", "setting": "endothelial function; [5]", "result": 1.74}, {"measurement": "Reactive Hyperemia Index, Minimum", "setting": "endothelial function; [5]", "result": 1.23}, {"measurement": "Reactive Hyperemia Index, Mean", "setting": "endothelial function; HPT Group, Visit 5, 81 mg IR ASA, listed as IR aspirin", "result": "1.7±0.5"}, {"measurement": "RHI < 1.67 (%)", "setting": "endothelial function; [5]", "result": "(44) %"}, {"measurement": "Reactive Hyperemia Index, Maximum", "setting": "endothelial function; Visit 2, 81 mg IR ASA", "result": 3.01}, {"measurement": "Reactive Hyperemia Index, Mean", "setting": "endothelial function; Visit 2, 81 mg IR ASA", "result": 1.94}, {"measurement": "Reactive Hyperemia Index, Minimum", "setting": "endothelial function; Visit 2, 81 mg IR ASA", "result": 0.58}, {"measurement": "Reactive Hyperemia Index, Mean", "setting": "endothelial function; Visit 2, 81 mg IR ASA, listed as IR aspirin", "result": "1.9±0.5"}, {"measurement": "RHI < 1.67 (%)", "setting": "endothelial function; Visit 2, 81 mg IR ASA", "result": "(27.5) %"}, {"measurement": "VerifyNow Aspirin Assay (ARU)", "setting": "platelet aggregation [1]; 81 mg IR QD, main study", "result": "477 ± 72", "unit": "ARU"}, {"measurement": "VerifyNow Aspirin Assay (ARU)", "setting": "platelet aggregation [1]; [6]", "result": "475 ± 102", "unit": "ARU"}, {"measurement": "LTA (%) 2 μg/mL Collagen (Final)", "setting": "platelet aggregation [2]; 81 mg IR QD, main study", "result": "54 ± 25", "unit": "%"}, {"measurement": "LTA (%) 2 μg/mL Collagen (Max)", "setting": "platelet aggregation [2]; 81 mg IR QD, main study", "result": "57 ± 24", "unit": "%"}, {"measurement": "LTA (%) 4 μg/mL Collagen (Final)", "setting": "platelet aggregation [2]; 81 mg IR QD, main study", "result": "65 ± 20", "unit": "%"}, {"measurement": "LTA (%) 4 μg/mL Collagen (Max)", "setting": "platelet aggregation [2]; 81 mg IR QD, main study", "result": "66 ± 21", "unit": "%"}, {"measurement": "LTA (%) 5 μM ADP (Final)", "setting": "platelet aggregation [2]; 81 mg IR QD, main study", "result": "50 ± 17", "unit": "%"}, {"measurement": "LTA (%) 5 μM ADP (Max)", "setting": "platelet aggregation [2]; 81 mg IR QD, main study", "result": "59 ± 14", "unit": "%"}, {"measurement": "LTA (%) 1 mM AA (Max)", "setting": "platelet aggregation [2]; 81 mg IR QD, main study", "result": "5 ± 12", "unit": "%"}, {"measurement": "LTA (%) 2 mM AA (Final), first line so labelled (r8)", "setting": "platelet aggregation [2]; 81 mg IR QD, main study", "result": "5 ± 12", "unit": "%"}, {"measurement": "LTA (%) 2 mM AA (Final), second line (r10)", "setting": "platelet aggregation [2]; 81 mg IR QD, main study", "result": "6 ± 13", "unit": "%"}, {"measurement": "LTA (%) 2 mM AA (Max)", "setting": "platelet aggregation [2]; 81 mg IR QD, main study", "result": "7 ± 14", "unit": "%"}, {"measurement": "LTA (%) 2 μg/mL Collagen (Final)", "setting": "platelet aggregation [2]; [6]", "result": "67 ± 12", "unit": "%"}, {"measurement": "LTA (%) 2 μg/mL Collagen (Max)", "setting": "platelet aggregation [2]; [6]", "result": "68 ± 11", "unit": "%"}, {"measurement": "LTA (%) 4 μg/mL Collagen (Final)", "setting": "platelet aggregation [2]; [6]", "result": "71 ± 13", "unit": "%"}, {"measurement": "LTA (%) 4 μg/mL Collagen (Max)", "setting": "platelet aggregation [2]; [6]", "result": "73 ± 12", "unit": "%"}, {"measurement": "LTA (%) 5 μM ADP (Final)", "setting": "platelet aggregation [2]; [6]", "result": "52 ± 14", "unit": "%"}, {"measurement": "LTA (%) 5 μM ADP (Max)", "setting": "platelet aggregation [2]; [6]", "result": "61 ± 10", "unit": "%"}, {"measurement": "LTA (%) 1 mM AA (Max)", "setting": "platelet aggregation [2]; [6]", "result": "4 ± 2", "unit": "%"}, {"measurement": "LTA (%) 2 mM AA (Final), first line so labelled (r8)", "setting": "platelet aggregation [2]; [6]", "result": "3 ± 2", "unit": "%"}, {"measurement": "LTA (%) 2 mM AA (Final), second line (r10)", "setting": "platelet aggregation [2]; [6]", "result": "3 ± 2", "unit": "%"}, {"measurement": "LTA (%) 2 mM AA (Max)", "setting": "platelet aggregation [2]; [6]", "result": "4 ± 2", "unit": "%"}, {"measurement": "AA induced and collagen induced platelet aggregation 24 hours after administration", "setting": "platelet aggregation [3]", "result": "significant increase"}, {"measurement": "MultiPlate (AU) AA", "setting": "platelet aggregation [4]; 81 mg IR QD, main study", "result": "17 ± 14", "unit": "AU"}, {"measurement": "MultiPlate (AU) ADP", "setting": "platelet aggregation [4]; 81 mg IR QD, main study", "result": "70 ± 24", "unit": "AU"}, {"measurement": "MultiPlate (AU) Collagen", "setting": "platelet aggregation [4]; 81 mg IR QD, main study", "result": "36 ± 17", "unit": "AU"}, {"measurement": "MultiPlate (AU) AA", "setting": "platelet aggregation [4]; [6]", "result": "24 ± 13", "unit": "AU"}, {"measurement": "MultiPlate (AU) ADP", "setting": "platelet aggregation [4]; [6]", "result": "77 ± 15", "unit": "AU"}, {"measurement": "MultiPlate (AU) Collagen", "setting": "platelet aggregation [4]; [6]", "result": "47 ± 18", "unit": "AU"}]}]}
